ChEMBL document CHEMBL1201862, “PubChem BioAssay data set” (2004)
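Each compound was tested at five concentrations against cells in 96-well plates for 48 hours. GI50 = concentration required for 50% inhibition of growth.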 The source made the active and inactive calls. No stated cut-off is given here; in the data, active = GI50 up to about 1.1 µM and inactive = higher.

Legend:
Assay in all cases: NCI tumour cell line growth inhibition, 48 h
HCC 2998 = test system: HCC 2998
MCF7 = test system: MCF7
SK-MEL-5 = test system: SK-MEL-5
HOP-62 = test system: HOP-62
T47D = test system: T47D
ACHN = test system: ACHN
IGROV-1 = test system: IGROV-1
OVCAR-5 = test system: OVCAR-5
SF-295 = test system: SF-295
MDA-MB-435 = test system: MDA-MB-435
SF-539 = test system: SF-539
786-0 = test system: 786-0
LOX IMVI = test system: LOX IMVI
U-251 = test system: U-251
MDA-N = test system: MDA-N
Hs-578T = test system: Hs-578T
SF-268 = test system: SF-268
K562 = test system: K562
NCI-H226 = test system: NCI-H226
UACC-62 = test system: UACC-62

## OCC1OC(OCC(O)C(O)C(O)C(/C=N/Nc2ccccc2)=N/Nc2ccccc2)C(O)C(O)C1O (stereo not given)
HCC 2998
  GI50: > 100 µM (inactive)
MCF7
  GI50: 63.1 µM (inactive)
SK-MEL-5
  GI50: > 100 µM (inactive)
HOP-62
  GI50: > 100 µM (inactive)
T47D
  GI50: 17 µM (inactive)
ACHN
  GI50: 51.9 µM (inactive)
IGROV-1
  GI50: 5.19 µM (inactive)
OVCAR-5
  GI50: > 100 µM (inactive)
SF-295
  GI50: 78.9 µM (inactive)
MDA-MB-435
  GI50: > 100 µM (inactive)
SF-539
  GI50: 79.3 µM (inactive)
786-0
  GI50: > 100 µM (inactive)
LOX IMVI
  GI50: 13.2 µM (inactive)
U-251
  GI50: > 100 µM (inactive)
MDA-N
  GI50: > 100 µM (inactive)
Hs-578T
  GI50: > 100 µM (inactive)
SF-268
  GI50: 26 µM (inactive)

## CCOc1cc(C2CC(c3ccc(NS(=O)(=O)c4cc([N+](=O)[O-])ccc4C)cc3)=NN2c2ccc([N+](=O)[O-])cc2[N+](=O)[O-])ccc1O (stereo not given)
MCF7
  GI50: 7.46 µM (inactive)
SK-MEL-5
  GI50: 10.4 µM (inactive)
HOP-62
  GI50: 10.7 µM (inactive)
T47D
  GI50: 9.68 µM (inactive)
ACHN
  GI50: 6.76 µM (inactive)
IGROV-1
  GI50: 12.5 µM (inactive)
OVCAR-5
  GI50: 23.4 µM (inactive)
SF-295
  GI50: 12.1 µM (inactive)
MDA-MB-435
  GI50: 11.6 µM (inactive)
SF-539
  GI50: 7.45 µM (inactive)
786-0
  GI50: 2.58 µM (inactive)
K562
  GI50: 21.3 µM (inactive)
LOX IMVI
  GI50: 16.6 µM (inactive)
NCI-H226
  GI50: 7.31 µM (inactive)
U-251
  GI50: 9.48 µM (inactive)
MDA-N
  GI50: 12.2 µM (inactive)
Hs-578T
  GI50: 12.9 µM (inactive)
SF-268
  GI50: 11.1 µM (inactive)

## O=S1(=O)C(c2ccccc2)C(N2CCCCC2)C1C1CC2c3ccccc3C1c1ccccc12 (stereo not given)
MCF7
  GI50: 30.8 µM (inactive)
SK-MEL-5
  GI50: 45.1 µM (inactive)
HOP-62
  GI50: > 100 µM (inactive)
T47D
  GI50: 10.4 µM (inactive)
ACHN
  GI50: > 100 µM (inactive)
IGROV-1
  GI50: > 94 µM (inactive)
OVCAR-5
  GI50: > 100 µM (inactive)
SF-295
  GI50: > 100 µM (inactive)
MDA-MB-435
  GI50: > 30.7 µM (inactive)
SF-539
  GI50: > 100 µM (inactive)
786-0
  GI50: > 100 µM (inactive)
K562
  GI50: 5.56 µM (inactive)
LOX IMVI
  GI50: > 100 µM (inactive)
NCI-H226
  GI50: > 100 µM (inactive)
U-251
  GI50: > 85.1 µM (inactive)
UACC-62
  GI50: > 100 µM (inactive)
MDA-N
  GI50: > 100 µM (inactive)
Hs-578T
  GI50: > 100 µM (inactive)
SF-268
  GI50: > 100 µM (inactive)

## Cc1ccc(C2(O)CS/C(=N\C34CC5CC(CC(C5)C3)C4)N2C(P(=O)(O)O)P(=O)(O)O)cc1 (stereo not given)
HCC 2998
  GI50: 68.1 µM (inactive)
MCF7
  GI50: 65.2 µM (inactive)
HOP-62
  GI50: 49.1 µM (inactive)
T47D
  GI50: 80.2 µM (inactive)
ACHN
  GI50: > 100 µM (inactive)
IGROV-1
  GI50: > 100 µM (inactive)
OVCAR-5
  GI50: 82.8 µM (inactive)
SF-295
  GI50: 44.4 µM (inactive)
MDA-MB-435
  GI50: > 100 µM (inactive)
SF-539
  GI50: > 100 µM (inactive)
786-0
  GI50: > 100 µM (inactive)
K562
  GI50: 42.7 µM (inactive)
NCI-H226
  GI50: > 100 µM (inactive)
U-251
  GI50: 38.6 µM (inactive)
MDA-N
  GI50: 42 µM (inactive)
Hs-578T
  GI50: 73.1 µM (inactive)
SF-268
  GI50: > 100 µM (inactive)

## O=C(O)CSC(CC(=O)c1ccc(Cl)cc1)c1ccc(Cl)cc1 (stereo not given)
MCF7
  GI50: 22.2 µM (inactive)
SK-MEL-5
  GI50: 34.4 µM (inactive)
HOP-62
  GI50: 32.9 µM (inactive)
T47D
  GI50: 29.3 µM (inactive)
ACHN
  GI50: 79.1 µM (inactive)
IGROV-1
  GI50: 19.7 µM (inactive)
OVCAR-5
  GI50: > 100 µM (inactive)
SF-295
  GI50: 42.4 µM (inactive)
MDA-MB-435
  GI50: 22.1 µM (inactive)
SF-539
  GI50: 36.6 µM (inactive)
786-0
  GI50: 21.8 µM (inactive)
K562
  GI50: 32.1 µM (inactive)
LOX IMVI
  GI50: 17.3 µM (inactive)
U-251
  GI50: 29 µM (inactive)
UACC-62
  GI50: 39.2 µM (inactive)
MDA-N
  GI50: 20.6 µM (inactive)
Hs-578T
  GI50: 34.6 µM (inactive)
SF-268
  GI50: 25.1 µM (inactive)

## [O-]c1c[n+](-c2ccccc2)no1
HCC 2998
  GI50: > 100 µM (inactive)
MCF7
  GI50: > 100 µM (inactive)
SK-MEL-5
  GI50: > 100 µM (inactive)
HOP-62
  GI50: > 100 µM (inactive)
T47D
  GI50: > 100 µM (inactive)
ACHN
  GI50: > 100 µM (inactive)
IGROV-1
  GI50: > 100 µM (inactive)
OVCAR-5
  GI50: > 100 µM (inactive)
SF-295
  GI50: > 100 µM (inactive)
MDA-MB-435
  GI50: > 100 µM (inactive)
SF-539
  GI50: > 100 µM (inactive)
786-0
  GI50: > 100 µM (inactive)
K562
  GI50: > 100 µM (inactive)
LOX IMVI
  GI50: > 100 µM (inactive)
U-251
  GI50: > 100 µM (inactive)
UACC-62
  GI50: > 100 µM (inactive)
MDA-N
  GI50: > 100 µM (inactive)
Hs-578T
  GI50: > 100 µM (inactive)
SF-268
  GI50: > 100 µM (inactive)

## CCN(CC)S(=O)(=O)c1ccc2[nH]c(NC(=O)OC)nc2c1
HCC 2998
  GI50: 7 µM (inactive)
SK-MEL-5
  GI50: 98.9 µM (inactive)
HOP-62
  GI50: 40.3 µM (inactive)
T47D
  GI50: 53.8 µM (inactive)
IGROV-1
  GI50: 32.4 µM (inactive)
OVCAR-5
  GI50: > 100 µM (inactive)
SF-295
  GI50: 85.7 µM (inactive)
MDA-MB-435
  GI50: 15.3 µM (inactive)
SF-539
  GI50: 30 µM (inactive)
786-0
  GI50: 64.4 µM (inactive)
K562
  GI50: 32.1 µM (inactive)
LOX IMVI
  GI50: 42.6 µM (inactive)
NCI-H226
  GI50: > 100 µM (inactive)
U-251
  GI50: > 100 µM (inactive)
MDA-N
  GI50: 18.5 µM (inactive)
Hs-578T
  GI50: > 100 µM (inactive)
SF-268
  GI50: 99.3 µM (inactive)

## COc1cc(Cn2c3c(c4c(C(=O)NCCN(C)C)c(O)ccc42)C(=O)c2ccccc2C3=O)cc(OC)c1
HCC 2998
  GI50: 1.13 µM (inactive)
MCF7
  GI50: 2 µM (inactive)
SK-MEL-5
  GI50: 1.67 µM (inactive)
HOP-62
  GI50: 2 µM (inactive)
T47D
  GI50: 1.8 µM (inactive)
ACHN
  GI50: 1.48 µM (inactive)
IGROV-1
  GI50: 1.73 µM (inactive)
OVCAR-5
  GI50: 1.67 µM (inactive)
SF-295
  GI50: 1.92 µM (inactive)
MDA-MB-435
  GI50: 1.75 µM (inactive)
SF-539
  GI50: 1.79 µM (inactive)
786-0
  GI50: 0.501 µM (active)
K562
  GI50: 1.37 µM (inactive)
NCI-H226
  GI50: 6.87 µM (inactive)
U-251
  GI50: 1.64 µM (inactive)
UACC-62
  GI50: 1.91 µM (inactive)
MDA-N
  GI50: 1.63 µM (inactive)
Hs-578T
  GI50: 1.79 µM (inactive)
SF-268
  GI50: 1.99 µM (inactive)

## NC(=S)NS(=O)(=O)c1ccc(Cl)cc1Cl
HCC 2998
  GI50: > 100 µM (inactive)
SK-MEL-5
  GI50: > 100 µM (inactive)
HOP-62
  GI50: > 100 µM (inactive)
T47D
  GI50: > 100 µM (inactive)
ACHN
  GI50: > 100 µM (inactive)
IGROV-1
  GI50: > 100 µM (inactive)
OVCAR-5
  GI50: > 100 µM (inactive)
SF-295
  GI50: > 100 µM (inactive)
MDA-MB-435
  GI50: > 100 µM (inactive)
SF-539
  GI50: > 100 µM (inactive)
786-0
  GI50: > 100 µM (inactive)
K562
  GI50: > 100 µM (inactive)
LOX IMVI
  GI50: > 100 µM (inactive)
NCI-H226
  GI50: > 100 µM (inactive)
U-251
  GI50: > 100 µM (inactive)
UACC-62
  GI50: > 100 µM (inactive)
MDA-N
  GI50: > 100 µM (inactive)
Hs-578T
  GI50: > 100 µM (inactive)
SF-268
  GI50: > 100 µM (inactive)

## O=C(O)C1C2C=CC(O2)C1C(=O)Nc1ccccc1 (stereo not given)
MCF7
  GI50: > 100 µM (inactive)
SK-MEL-5
  GI50: > 100 µM (inactive)
HOP-62
  GI50: > 100 µM (inactive)
T47D
  GI50: > 100 µM (inactive)
ACHN
  GI50: > 100 µM (inactive)
IGROV-1
  GI50: > 100 µM (inactive)
OVCAR-5
  GI50: > 100 µM (inactive)
SF-295
  GI50: > 100 µM (inactive)
MDA-MB-435
  GI50: > 100 µM (inactive)
786-0
  GI50: > 100 µM (inactive)
K562
  GI50: > 100 µM (inactive)
LOX IMVI
  GI50: > 100 µM (inactive)
NCI-H226
  GI50: > 100 µM (inactive)
U-251
  GI50: > 100 µM (inactive)
UACC-62
  GI50: > 100 µM (inactive)
MDA-N
  GI50: > 100 µM (inactive)
Hs-578T
  GI50: > 100 µM (inactive)
SF-268
  GI50: > 100 µM (inactive)

## O=C1CCN(CCC(F)(F)C(F)(F)C(F)(F)C(F)(F)C(F)(F)C(F)(F)F)C(=S)N1CCC(F)(F)C(F)(F)C(F)(F)C(F)(F)C(F)(F)C(F)(F)F
HCC 2998
  GI50: > 100 µM (inactive)
MCF7
  GI50: > 100 µM (inactive)
SK-MEL-5
  GI50: > 100 µM (inactive)
HOP-62
  GI50: > 100 µM (inactive)
T47D
  GI50: > 100 µM (inactive)
ACHN
  GI50: > 100 µM (inactive)
IGROV-1
  GI50: > 100 µM (inactive)
OVCAR-5
  GI50: > 100 µM (inactive)
SF-295
  GI50: > 100 µM (inactive)
MDA-MB-435
  GI50: > 100 µM (inactive)
SF-539
  GI50: > 100 µM (inactive)
786-0
  GI50: > 100 µM (inactive)
K562
  GI50: > 100 µM (inactive)
NCI-H226
  GI50: > 100 µM (inactive)
U-251
  GI50: > 100 µM (inactive)
UACC-62
  GI50: > 100 µM (inactive)
MDA-N
  GI50: > 100 µM (inactive)
Hs-578T
  GI50: > 100 µM (inactive)
SF-268
  GI50: > 100 µM (inactive)
